Test results as given in patent publication US20190048054A1, “Mesenchymal Stem Cells Expressing Biomarkers that Predict the Effectiveness of Mesenchymal Stem Cells for Treating Diseases and Disorders” (priority 2014, published 2019).

Tests used:
[1] = tested on: hMSCs; test: Cell viability of hMSCs after estradiol treatment (photographs); format: cell-based, human; conditions: estradiol treatment for 4 days (FIG. 2C)
[2] = tested on: animal models for human diseases; conditions: administration of recombinant TSG-6; cited from earlier work

Question: With C[C@]12CC[C@@H]3c4ccc(O)cc4CC[C@H]3[C@@H]1CC[C@@H]2O [estradiol] as the molecule, how does the cell viability [1] read?
Answer: The cell viability was “without affecting cell viability”.

Question: For “recombinant TSG-6: naturally occurring anti-inflammatory protein of 35 kDa, SEQ ID NO: 1; given as recombinant protein”, which “beneficial effects compared with hMSCs” value [2] is on record?
Answer: The value was “reproduced most of the beneficial effects of the hMSCs”.
